Laboratory results as given in article PMC7222207, “Characterization of a CholesteroNitrone (ISQ-201), a Novel Drug Candidate for the Treatment of Ischemic Stroke” (Antioxidants, 2020).

Legend:
[1] = test system: transient forebrain ischemia, cortex and hippocampal CA1; test: Global cerebral ischemia (4VO), dose-response curve of neuroprotection; assay type: in vivo, male Wistar rats; conditions: for EC50 of neuroprotection from dose-response curve: 5 days of reperfusion
Method: Transient forebrain ischemia was induced in adult male Wistar rats (10–12 weeks, Charles River) by the standard four-vessel occlusion model (4VO) described previously. Briefly, both vertebral arteries were irreversibly occluded by electrocoagulation under anesthesia, with a mixture of atropine, ketamine, and diazepam (0.25, 62.5, and 5 mg/kg, respectively) delivered through intraperitoneal injection. After 24 h, ischemia was induced by carotid occlusion with atraumatic clips, for 15 min, and then the clips were removed from the carotid arteries to allow reperfusion. Body temperature was maintained at 37 °C during the surgical procedure. The animals were studied after 5 days of reperfusion (R5d) after which they were sacrificed. Sham control animals were prepared in the same way, without carotid occlusion. We performed a power analysis (http://www.biomath.info/power/ttest.htm) to determine the sample size. Significance level and statistical power were set at 0.05 and 0.8 (80%), respectively, which afforded a sample size of […] subjects per group. The treatments were administered with concealed allocation, and in randomized order, according to a computer-generated randomization program. […]
Figure 2 Dose-response curve of ISQ-201. Ischemic animals were treated with a vehicle or ISQ-201 (range 0.01–0.1 mg/kg) by an intravenous injection, at the onset of reperfusion after global cerebral ischemia, and ISQ-201 effect was evaluated by assessing the neuronal death at 5 days of reperfusion (R5d). […] Fluoro-Jade-positive dead neurons were visualized by fluorescence microscopy (in green) in the hippocampal CA1 (CA1) and cortical (C) regions (images), and counted, as described in Materials and Methods (bar graph). (b) Brain sections as in (a) were used for apoptosis detection by TUNEL assay after fixation, and were visualized by fluorescence microscopy (in green) in the CA1 and C regions (images). TUNEL-positive cells were counted in the CA1 and C regions, as described in the Materials and Methods (bar graph). […]

[2] = test system: transient middle cerebral artery occlusion; test: Transient focal cerebral ischemia (tMCAO), infarct size by TTC stain; assay type: in vivo, male C57BL/6 mice; conditions: mice, 48 h after tMCAO

CC(C)[C@H]1CC[C@H]2[C@@H]3CCC4=C/C(=[N+](\C)[O-])CC[C@]4(C)[C@H]3CC[C@]12C [ISQ-201]
EC50 of neuroprotection from dose-response curve ([1]; cortex, iv 0.01–0.1 mg/kg at reperfusion onset): 0.015 mg/kg | EC50 of neuroprotection from dose-response curve ([1]; hippocampal CA1, iv 0.01–0.1 mg/kg at reperfusion onset): 0.025 mg/kg | most effective dose in decreasing neuronal death and apoptosis ([1]; iv, doses 0.01–0.1 mg/kg, after 5 days of reperfusion): 0.05 mg/kg | infarct area in the brain vs vehicle ([2]; 0.05 mg/kg ip at onset of reperfusion): did not change | reduction in lesion size with respect to vehicle-treated group ([2]; 0.1 mg/kg ip at onset of reperfusion): 21%
